Laboratory results taken from the supplement of paper PMC11451515.

Columns and labels:
Conditions in all cases: 48 h
[1] = test system: NOMO1; assay: cell viability relative to DMSO control; higher = less cytotoxic
Outline: (§1)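 Leukemia cells (NOMO1 or SEM, 500 cells/well; P12-Ichikawa, 1000 cells/well) were seeded in 5 μl in 1536-well plates after at least four passages of adaptation to each medium. They received library compounds in DMSO by pin dosing, 11 threefold points from 47 μM to 0.79 nM. Luminescence with CellTiter-Glo One was read after 48 h at 37°C. Viability is stated per plate relative to DMSO wells, with cell-free wells as background.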

[2] = test system: P12-Ichikawa; assay: as above
Outline: as §1

[3] = test system: SEM cells; assay: as above
Outline: as §1

[4] = test system: NOMO1; assay: AUC of viability dose-response curve (% viability x log10 dose units); higher = less sensitive
Outline: (§2)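 Medium-adapted leukemia cells in 1536-well plates, at 500 or 1000 cells/well, were incubated for 48 h at 37°C with library compounds in DMSO at 11 threefold doses from 47 μM to 0.79 nM. CellTiter-Glo One luminescence normalised per plate to DMSO and cell-free wells was fitted with a four-parameter log-logistic model over log10 doses. Area under the curve was integrated from this fit by trapezoidal rule, with curves beyond full viability scaled and failed quality-control curves removed.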

[5] = test system: P12-Ichikawa; assay: as above
Outline: as §2

[6] = test system: SEM cells; assay: as above
Outline: as §2

CC#C[C@]1(O)CC[C@H]2[C@@H]/3CCC/4=C/C(=O)CCC4=C3[C@H](C[C@]12C)C5=CC=C(C=C5)N(C)C
cell viability [%]
Conditions	[1]	[2]	[3]
HPLM + 10% dialyzed FBS, 0.000781 µM	95.5	101	76.6
HPLM + 10% dialyzed FBS, 0.00234 µM	99.9	101	74.8
HPLM + 10% dialyzed FBS, 0.00702 µM	101	103	88.3
HPLM + 10% dialyzed FBS, 0.0211 µM	102	105	80.4
HPLM + 10% dialyzed FBS, 0.0632 µM	103	107	68.9
HPLM + 10% dialyzed FBS, 0.19 µM	96.1	110	87.4
HPLM + 10% dialyzed FBS, 0.569 µM	102	107	84.1
HPLM + 10% dialyzed FBS, 1.71 µM	94.8	98.7	89.9
HPLM + 10% dialyzed FBS, 5.12 µM	79.3	102	89.9
HPLM + 10% dialyzed FBS, 15.4 µM	9.1	75.1	86.1
HPLM + 10% dialyzed FBS, 46.1 µM	6.71	73.1	58.7
RPMI 5 mM glucose + 10% FBS, 0.000781 µM	83.5	95.6	76
RPMI 5 mM glucose + 10% FBS, 0.00234 µM	95.2	108	84.6
RPMI 5 mM glucose + 10% FBS, 0.00702 µM	91.3	105	99.9
RPMI 5 mM glucose + 10% FBS, 0.0211 µM	86.2	104	102
RPMI 5 mM glucose + 10% FBS, 0.0632 µM	90	105	96
RPMI 5 mM glucose + 10% FBS, 0.19 µM	88.1	93.9	86.3
RPMI 5 mM glucose + 10% FBS, 0.569 µM	93.4	106	105
RPMI 5 mM glucose + 10% FBS, 1.71 µM	95.5	87.4	92.7
RPMI 5 mM glucose + 10% FBS, 5.12 µM	73.2	83.4	96.1
RPMI 5 mM glucose + 10% FBS, 15.4 µM	9.23	61.2	73
RPMI 5 mM glucose + 10% FBS, 46.1 µM	5.91	30.8	58.3
RPMI 5 mM glucose + 10% dialyzed FBS, 0.000781 µM	90.7	80	87.2
RPMI 5 mM glucose + 10% dialyzed FBS, 0.00234 µM	81.5	94	91.6
RPMI 5 mM glucose + 10% dialyzed FBS, 0.00702 µM	88.7	92.7	101
RPMI 5 mM glucose + 10% dialyzed FBS, 0.0211 µM	97.2	98.9	110
RPMI 5 mM glucose + 10% dialyzed FBS, 0.0632 µM	110	102	92
RPMI 5 mM glucose + 10% dialyzed FBS, 0.19 µM	90.3	97.6	90.3
RPMI 5 mM glucose + 10% dialyzed FBS, 0.569 µM	93	93	96
RPMI 5 mM glucose + 10% dialyzed FBS, 1.71 µM	85.4	95.9	84
RPMI 5 mM glucose + 10% dialyzed FBS, 5.12 µM	70.9	83	92.8
RPMI 5 mM glucose + 10% dialyzed FBS, 15.4 µM	9.38	51.5	83
RPMI 5 mM glucose + 10% dialyzed FBS, 46.1 µM	6.16	39.6	49.5

AUC of viability dose-response curve
Conditions	[4]	[5]	[6]
HPLM + 10% dialyzed FBS	399	456	384
RPMI 5 mM glucose + 10% FBS	364	422	426
RPMI 5 mM glucose + 10% dialyzed FBS	370	411	432
